# Source: ChEMBL document CHEMBL3885861, “Open TG-GATES”
# Organism: Rattus norvegicus
# Experiment: Open TG-GATES - Regimen: Single
# Format: toxicity, organism-based, Sprague-Dawley
# Parameters: regimen Single, gender Male, age 6 weeks
# Conditions: in vivo, po, route gavage; for TG / TP / gamma-GTP / ALP / ALT / AST / BUN / CRE / Ca / DBIL / IP / K / LDH / Na / PL / RALB / TBIL / TC: tissue Plasma; for Bas / Eos / Fbg / Hb / Ht / Lym / MCHC / Mono / Neu / PT / Plat / RBC / Ret / WBC / MCH: tissue Blood; for KIDNEY_L / KIDNEY_R / KIDNEY_TOTAL: tissue Kidney; for LIVER: tissue Liver
# [1] = 0 mg/kg, 24 h, dose level Control
smiles,measurement,setting,value
CCC(C)(C)C(=O)O[C@H]1C[C@@H](C)C=C2C=C[C@H](C)[C@H](CC[C@@H]3C[C@@H](O)CC(=O)O3)[C@H]21 [SIMVASTATIN],TG,[1],76.6 mg/dL
same,TP,[1],5.5 g/dL
same,gamma-GTP,[1],1.6 IU/L
same,TERMINAL_BW,"40 mg/kg, 3 h, dose level Low",203.4 g
same,Bas,"40 mg/kg, 3 h, dose level Low",0%
same,Eos,"40 mg/kg, 3 h, dose level Low",0.6%
same,Fbg,"40 mg/kg, 3 h, dose level Low",213.2 mg/dL
same,Hb,"40 mg/kg, 3 h, dose level Low",12.4 g/dL
same,Ht,"40 mg/kg, 3 h, dose level Low",37.8%
same,Lym,"40 mg/kg, 3 h, dose level Low",81.6%
same,MCHC,"40 mg/kg, 3 h, dose level Low",32.8%
same,Mono,"40 mg/kg, 3 h, dose level Low",6%
same,Neu,"40 mg/kg, 3 h, dose level Low",12%
same,PT,"40 mg/kg, 3 h, dose level Low",11 s
same,Plat,"40 mg/kg, 3 h, dose level Low",112.7 x10_4/uL
same,RBC,"40 mg/kg, 3 h, dose level Low",568 x10_4/ul
same,Ret,"40 mg/kg, 3 h, dose level Low",10%
same,WBC,"40 mg/kg, 3 h, dose level Low",120.8 x10_2/uL
same,KIDNEY_L,"40 mg/kg, 3 h, dose level Low",0.9 g
same,KIDNEY_R,"40 mg/kg, 3 h, dose level Low",0.9 g
same,KIDNEY_TOTAL,"40 mg/kg, 3 h, dose level Low",1.9 g
same,LIVER,"40 mg/kg, 3 h, dose level Low",9.7 g
same,ALP,"40 mg/kg, 3 h, dose level Low",793.6 IU/L
same,ALT,"40 mg/kg, 3 h, dose level Low",31.4 IU/L
same,AST,"40 mg/kg, 3 h, dose level Low",61.6 IU/L
same,BUN,"40 mg/kg, 3 h, dose level Low",13.6 mg/dL
same,CRE,"40 mg/kg, 3 h, dose level Low",0.6 mg/dL
same,Ca,"40 mg/kg, 3 h, dose level Low",10.8 mg/dL
same,DBIL,"40 mg/kg, 3 h, dose level Low",0.04 mg/dL
same,IP,"40 mg/kg, 3 h, dose level Low",8.9 mg/dL
same,K,"40 mg/kg, 3 h, dose level Low",4.4 meq/L
same,LDH,"40 mg/kg, 3 h, dose level Low",91.8 IU/L
same,Na,"40 mg/kg, 3 h, dose level Low",137.8 meq/L
same,PL,"40 mg/kg, 3 h, dose level Low",144.6 mg/dL
same,RALB,"40 mg/kg, 3 h, dose level Low",3.8 g/dL
same,TBIL,"40 mg/kg, 3 h, dose level Low",0.3 mg/dL
same,TC,"40 mg/kg, 3 h, dose level Low",77.4 mg/dL
same,TG,"40 mg/kg, 3 h, dose level Low",71.2 mg/dL
same,TP,"40 mg/kg, 3 h, dose level Low",5.6 g/dL
same,gamma-GTP,"40 mg/kg, 3 h, dose level Low",1.4 IU/L
same,TERMINAL_BW,"40 mg/kg, 6 h, dose level Low",196.1 g
same,Bas,"40 mg/kg, 6 h, dose level Low",0%
same,Eos,"40 mg/kg, 6 h, dose level Low",1%
same,Fbg,"40 mg/kg, 6 h, dose level Low",216.2 mg/dL
same,Hb,"40 mg/kg, 6 h, dose level Low",13.4 g/dL
same,Ht,"40 mg/kg, 6 h, dose level Low",41.2%
same,Lym,"40 mg/kg, 6 h, dose level Low",81.6%
same,MCH,"40 mg/kg, 6 h, dose level Low",21.8 pg
same,MCHC,"40 mg/kg, 6 h, dose level Low",32.6%
same,Mono,"40 mg/kg, 6 h, dose level Low",7.4%
same,Neu,"40 mg/kg, 6 h, dose level Low",10.2%
same,Plat,"40 mg/kg, 6 h, dose level Low",112.9 x10_4/uL
same,RBC,"40 mg/kg, 6 h, dose level Low",615.8 x10_4/ul
same,Ret,"40 mg/kg, 6 h, dose level Low",9.1%
same,WBC,"40 mg/kg, 6 h, dose level Low",93.2 x10_2/uL
same,KIDNEY_L,"40 mg/kg, 6 h, dose level Low",0.9 g
same,KIDNEY_R,"40 mg/kg, 6 h, dose level Low",0.9 g
same,KIDNEY_TOTAL,"40 mg/kg, 6 h, dose level Low",1.8 g
same,LIVER,"40 mg/kg, 6 h, dose level Low",8.7 g
same,ALP,"40 mg/kg, 6 h, dose level Low",826.8 IU/L
same,ALT,"40 mg/kg, 6 h, dose level Low",32.8 IU/L
same,AST,"40 mg/kg, 6 h, dose level Low",58.6 IU/L
same,CRE,"40 mg/kg, 6 h, dose level Low",0.5 mg/dL
same,Ca,"40 mg/kg, 6 h, dose level Low",10.2 mg/dL
same,DBIL,"40 mg/kg, 6 h, dose level Low",0.08 mg/dL
same,IP,"40 mg/kg, 6 h, dose level Low",9.6 mg/dL
same,K,"40 mg/kg, 6 h, dose level Low",4.4 meq/L
same,LDH,"40 mg/kg, 6 h, dose level Low",98.4 IU/L
same,Na,"40 mg/kg, 6 h, dose level Low",137.6 meq/L
same,PL,"40 mg/kg, 6 h, dose level Low",132.4 mg/dL
same,RALB,"40 mg/kg, 6 h, dose level Low",3.6 g/dL
same,TBIL,"40 mg/kg, 6 h, dose level Low",0.4 mg/dL
same,TC,"40 mg/kg, 6 h, dose level Low",75.8 mg/dL
same,TG,"40 mg/kg, 6 h, dose level Low",50.8 mg/dL
same,TP,"40 mg/kg, 6 h, dose level Low",5.6 g/dL
same,gamma-GTP,"40 mg/kg, 6 h, dose level Low",1.2 IU/L
same,TERMINAL_BW,"40 mg/kg, 9 h, dose level Low",200.4 g
same,Bas,"40 mg/kg, 9 h, dose level Low",0%
same,Eos,"40 mg/kg, 9 h, dose level Low",0.8%
same,Fbg,"40 mg/kg, 9 h, dose level Low",214.8 mg/dL
same,Hb,"40 mg/kg, 9 h, dose level Low",13.2 g/dL
same,Ht,"40 mg/kg, 9 h, dose level Low",40.1%
same,Lym,"40 mg/kg, 9 h, dose level Low",78.6%
same,MCH,"40 mg/kg, 9 h, dose level Low",22 pg
same,MCHC,"40 mg/kg, 9 h, dose level Low",32.9%
same,Mono,"40 mg/kg, 9 h, dose level Low",7.8%
same,Neu,"40 mg/kg, 9 h, dose level Low",12.8%
same,PT,"40 mg/kg, 9 h, dose level Low",11.7 s
same,Plat,"40 mg/kg, 9 h, dose level Low",110 x10_4/uL
same,RBC,"40 mg/kg, 9 h, dose level Low",601.2 x10_4/ul
same,Ret,"40 mg/kg, 9 h, dose level Low",9.1%
same,WBC,"40 mg/kg, 9 h, dose level Low",101.8 x10_2/uL
same,KIDNEY_L,"40 mg/kg, 9 h, dose level Low",0.9 g
same,KIDNEY_R,"40 mg/kg, 9 h, dose level Low",0.9 g
same,KIDNEY_TOTAL,"40 mg/kg, 9 h, dose level Low",1.8 g
same,LIVER,"40 mg/kg, 9 h, dose level Low",8.2 g
same,ALP,"40 mg/kg, 9 h, dose level Low",749.6 IU/L
same,ALT,"40 mg/kg, 9 h, dose level Low",32.8 IU/L
same,AST,"40 mg/kg, 9 h, dose level Low",58.4 IU/L
same,BUN,"40 mg/kg, 9 h, dose level Low",12.6 mg/dL
same,CRE,"40 mg/kg, 9 h, dose level Low",0.7 mg/dL
same,DBIL,"40 mg/kg, 9 h, dose level Low",0.016 mg/dL
same,K,"40 mg/kg, 9 h, dose level Low",4.6 meq/L
same,LDH,"40 mg/kg, 9 h, dose level Low",91 IU/L
same,Na,"40 mg/kg, 9 h, dose level Low",138 meq/L
same,PL,"40 mg/kg, 9 h, dose level Low",118.4 mg/dL
same,RALB,"40 mg/kg, 9 h, dose level Low",3.7 g/dL
same,TBIL,"40 mg/kg, 9 h, dose level Low",0.4 mg/dL
same,TC,"40 mg/kg, 9 h, dose level Low",64.8 mg/dL
same,TG,"40 mg/kg, 9 h, dose level Low",42 mg/dL
same,TP,"40 mg/kg, 9 h, dose level Low",5.4 g/dL
same,gamma-GTP,"40 mg/kg, 9 h, dose level Low",2 IU/L
same,TERMINAL_BW,"40 mg/kg, 24 h, dose level Low",216.2 g
same,Bas,"40 mg/kg, 24 h, dose level Low",0%
same,Eos,"40 mg/kg, 24 h, dose level Low",1%
same,Fbg,"40 mg/kg, 24 h, dose level Low",221.2 mg/dL
same,Hb,"40 mg/kg, 24 h, dose level Low",12.5 g/dL
same,Ht,"40 mg/kg, 24 h, dose level Low",38.2%
same,Lym,"40 mg/kg, 24 h, dose level Low",78.6%
same,MCHC,"40 mg/kg, 24 h, dose level Low",32.8%
same,Mono,"40 mg/kg, 24 h, dose level Low",9.8%
same,Neu,"40 mg/kg, 24 h, dose level Low",11%
same,Plat,"40 mg/kg, 24 h, dose level Low",119.9 x10_4/uL
same,RBC,"40 mg/kg, 24 h, dose level Low",588.4 x10_4/ul
same,WBC,"40 mg/kg, 24 h, dose level Low",118.8 x10_2/uL
same,KIDNEY_L,"40 mg/kg, 24 h, dose level Low",1 g
same,KIDNEY_R,"40 mg/kg, 24 h, dose level Low",1 g
same,KIDNEY_TOTAL,"40 mg/kg, 24 h, dose level Low",2 g
same,LIVER,"40 mg/kg, 24 h, dose level Low",10.8 g
same,ALP,"40 mg/kg, 24 h, dose level Low",866.2 IU/L
same,ALT,"40 mg/kg, 24 h, dose level Low",41.6 IU/L
same,AST,"40 mg/kg, 24 h, dose level Low",63.6 IU/L
same,BUN,"40 mg/kg, 24 h, dose level Low",18.6 mg/dL
same,CRE,"40 mg/kg, 24 h, dose level Low",0.5 mg/dL
same,Ca,"40 mg/kg, 24 h, dose level Low",10.8 mg/dL
same,DBIL,"40 mg/kg, 24 h, dose level Low",0.022 mg/dL
same,IP,"40 mg/kg, 24 h, dose level Low",8.4 mg/dL
same,K,"40 mg/kg, 24 h, dose level Low",4.6 meq/L
same,LDH,"40 mg/kg, 24 h, dose level Low",108.4 IU/L
same,Na,"40 mg/kg, 24 h, dose level Low",140.2 meq/L
same,PL,"40 mg/kg, 24 h, dose level Low",144.6 mg/dL
same,RALB,"40 mg/kg, 24 h, dose level Low",3.7 g/dL
same,TBIL,"40 mg/kg, 24 h, dose level Low",0.3 mg/dL
